In one series the test system is γ-secretase. Description: Cellular γ-secretase assay (Aβ42 secretion). The class given is cell-based. The following applies: inhibition of Aβ42 secretion; human neuroglioma H4 cells overexpressing human APP; 22 hrs incubation; read-out: EC50 in vitro. On the procedure: Cellular γ-Secretase Assay
Human neuroglioma H4 cells overexpressing human APP were plated at 30,000 cells/well/200 μl in 96-well plates in IMDM media containing 10% FCS, 0.2 mg/l Hygromycin B and incubated for 2 h at 37° C., 5% CO2 prior to adding test compounds.
Compounds for testing were dissolved in 100% Me2SO yielding in a 10 mM stock solution. Typically 12 μl of these solutions were further diluted in 1000 μl of IMDM media (w/o FCS,). Sub sequential 1:1 dilutions gave a ten point dose response curve. 100 μl of each dilution was added to the cells in 96-well plates. Appropriate controls using vehicle only and reference compound were applied to this assay. The final concentration of Me2SO was 0.4%.
After incubation for 22 hrs at 37° C., 5% CO2, 50 μl supernatant was transferred into round-bottom 96-well polypropylene plates for detection of Aβ42. 50 μl assay buffer (50 mM Tris/Cl, pH 7.4, 60 mM NaCl, 0.5% BSA, 1% TWEEN 20) was added to the wells followed by the addition of 100 μl of detection antibody (ruthenylated Aβ42-specific antibody BAP15 0.0625 μg/mL in assay buffer). 50 μl of a premix of capture antibody (biotinylated 6E10 antibody, 1 μg/mL) and Steptavidin-coated magnetic beads (Dynal M-280, 0.125 mg/mL) were preincubated for 1 hr at room temperature before adding the assay plates. Assay plates were incubated on a shaker for 3 hrs at room temperature and finally read in the Bioveris M8 Analyser according to the manufacturer's instructions (Bioveris).
EC50 values for inhibition of Aβ42 secretion were calculated by nonlinear regression fit analysis using XLfit 4.0 software (IDBS).

Experimental findings from patent publication US7923450B2, “Modulators for amyloid beta” (Hoffmann-La Roche Inc., priority 2008, dated 2011) are described below.

The melting point is the temperature of the solid-liquid transition. Take `Cc1cn(-c2ccc(Nc3nc4c(s3)CCCC4(C)c3ccccc3)cc2F)cn1` (stereo not shown) [Example 31, [3-Fluoro-4-(4-methyl-imidazol-1-yl)-phenyl]-(4-methyl-4-phenyl-4,5,6,7-tetrahydro-benzothiazol-2-yl)-amine]: the melting point was 160 to 164 °C.
With `Cc1cn(-c2ccc(Nc3nc4c(s3)CCCC4c3ccc(OC(F)(F)F)cc3)cc2F)cn1` (stereo not shown) [Example 34, [3-Fluoro-4-(4-methyl-imidazol-1-yl)-phenyl]-[4-(4-trifluoromethoxy-phenyl)-4,5,6,7-tetrahydro-benzothiazol-2-yl]-amine], the melting point was in the range of 148 to 151 °C.
As to `COc1cc(Nc2ncc3c(n2)C(C)(c2ccccc2)CCC3)ccc1-n1cnc(C)c1` (stereo not shown) [Example 45, [3-Methoxy-4-(4-methyl-imidazol-1-yl)-phenyl]-(8-methyl-8-phenyl-5,6,7,8-tetrahydro-quinazolin-2-yl)-amine], the melting point lay in the range of 207 to 209 °C.
The same measure, in the same setting: to `CCCC1(c2cccc(OC)c2)CCCc2cnc(Nc3ccc(-n4cnc(C)c4)c(OC)c3)nc21` (stereo not shown) [Example 46, [3-Methoxy-4-(4-methyl-imidazol-1-yl)-phenyl]-[8-(3-methoxy-phenyl)-8-propyl-5,6,7,8-tetrahydro-quinazolin-2-yl]-amine] belongs 166 to 168 °C; to `COc1cc(Nc2ncc3c(n2)C(c2cccc(C(F)(F)F)c2)CCC3)ccc1-n1cnc(C)c1` (stereo not shown) [Example 47, [3-Methoxy-4-(4-methyl-imidazol-1-yl)-phenyl]-[8-(3-trifluoromethyl-phenyl)-5,6,7,8-tetrahydro-quinazolin-2-yl]-amine], 213 to 215 °C; to `COc1cc(Nc2ncc3c(n2)C(c2ccc(Cl)cc2Cl)CCC3)ccc1-n1cnc(C)c1` (stereo not shown) [Example 48, [8-(2,4-Dichloro-phenyl)-5,6,7,8-tetrahydro-quinazolin-2-yl]-[3-methoxy-4-(4-methyl-imidazol-1-yl)-phenyl]-amine], 256 to 258 °C.
Same read-out and setting: to `COc1cc(Nc2ncc3c(n2)C(c2ccc(Cl)c(Cl)c2)CCC3)ccc1-n1cnc(C)c1` (stereo not shown) [Example 49, [8-(3,4-Dichloro-phenyl)-5,6,7,8-tetrahydro-quinazolin-2-yl]-[3-methoxy-4-(4-methyl-imidazol-1-yl)-phenyl]-amine] belongs 167 to 169 °C.
As for `COc1cc(Nc2ncc3c(n2)C(c2ccc(F)cc2)CCC3)ccc1-n1cnc(C)c1` (stereo not shown) [Example 51, [8-(4-Fluoro-phenyl)-5,6,7,8-tetrahydro-quinazolin-2-yl]-[3-methoxy-4-(4-methyl-imidazol-1-yl)-phenyl]-amine], the melting point lay within 191 to 193 °C.
Still for that read-out and setting: under `COc1cc(Nc2ncc3c(n2)C(CC#N)(c2ccc(Cl)cc2)CCC3)ccc1-n1cnc(C)c1` (stereo not shown) [Example 52, {8-(4-Chloro-phenyl)-2-[3-methoxy-4-(4-methyl-imidazol-1-yl)-phenylamino]-5,6,7,8-tetrahydro-quinazolin-8-yl}-acetonitrile] stands 156 to 158 °C; under `COc1cc(Nc2nc(O)c3c(n2)C(c2ccccc2)CN(C)C3)ccc1-n1cnc(C)c1` (stereo not shown) [Example 53, 2-[3-Methoxy-4-(4-methyl-imidazol-1-yl)-phenylamino]-6-methyl-8-phenyl-5,6,7,8-tetrahydro-pyrido[4,3-d]pyrimidin-4-ol], 152 to 155 °C; under `CCOC(=O)C1CCCc2cnc(Nc3ccc(-n4cnc(C)c4)c(OC)c3)nc21` (stereo not shown) [Example 54, Ethyl 2-[3-methoxy-4-(4-methyl-imidazol-1-yl)-phenylamino]-5,6,7,8-tetrahydro-quinazoline-8-carboxylate], 162 to 164 °C.
`COC(=O)C1CC2(Cc3cnc(Nc4ccc(-n5cnc(C)c5)c(OC)c4)nc31)OCCO2` (stereo not shown) [Example 55, Methyl 6,6-ethylendioxy-2-[3-methoxy-4-(4-methyl-imidazol-1-yl)-phenylamino]-5,6,7,8-tetrahydro-quinazoline-8-carboxylate] yielded a melting point of 180 to 182 °C.
In turn, `Cc1cn(-c2ccc(Nc3ncc4c(n3)C(C)(c3ccccc3)CCC4)cc2F)cn1` (stereo not shown) [Example 56, [3-Fluoro-4-(4-methyl-imidazol-1-yl)-phenyl]-(8-methyl-8-phenyl-5,6,7,8-tetrahydro-quinazolin-2-yl)-amine] returned a melting point of 157 to 158 °C.
Same read-out and setting: under `Cc1cn(-c2ccc(Nc3ncc4c(n3)C(c3cccc(C(F)(F)F)c3)CCC4)cc2F)cn1` (stereo not shown) [Example 57, [3-Fluoro-4-(4-methyl-imidazol-1-yl)-phenyl]-[8-(3-trifluoromethyl-phenyl)-5,6,7,8-tetrahydro-quinazolin-2-yl]-amine] stands 207 to 209 °C.
On to `CCOC(=O)C1CCCc2cnc(Nc3ccc(-n4cnc(C)c4)c(F)c3)nc21` (stereo not shown) [Example 59, Ethyl 2-[3-fluoro-4-(4-methyl-imidazol-1-yl)-phenylamino]-5,6,7,8-tetrahydro-quinazoline-8-carboxylate], for which the melting point fell in the range of 142 to 145 °C.
As to `Cc1cn(-c2ccc(Nc3ncc4c(n3)C(c3cc(C(F)(F)F)cc(C(F)(F)F)c3)CCC4)cc2F)cn1` (stereo not shown) [Example 61, [8-(3,5-Bis-trifluoromethyl-phenyl)-5,6,7,8-tetrahydro-quinazolin-2-yl]-[3-fluoro-4-(4-methyl-imidazol-1-yl)-phenyl]-amine], the melting point lay in the range of 200 to 202 °C.
`COc1cc(Nc2ncc3c(n2)C(c2cc(Cl)ccc2Cl)CCCC3)ccc1-n1cnc(C)c1` (stereo not shown) [Example 62, [9-(2,5-Dichloro-phenyl)-6,7,8,9-tetrahydro-5H-cycloheptapyrimidin-2-yl]-[3-methoxy-4-(4-methyl-imidazol-1-yl)-phenyl]-amine] gave a melting point of 218 to 220 °C.
`CCOC(=O)C1CCc2cnc(Nc3ccc(-n4cnc(C)c4)c(OC)c3)nc21` (stereo not shown) [Example 63, Ethyl 2-[3-methoxy-4-(4-methyl-imidazol-1-yl)-phenylamino]-6,7-dihydro-5H-cyclopentapyrimidine-7-carboxylate]: the melting point fell in the range of 150 to 153 °C.
Regarding `COc1cc(Nc2ncc3c(n2)C(c2nc(C)no2)CCC3)ccc1-n1cnc(C)c1` (stereo not shown) [Example 64, [3-Methoxy-4-(4-methyl-imidazol-1-yl)-phenyl]-[8-(3-methyl-[1,2,4]oxadiazol-5-yl)-5,6,7,8-tetrahydro-quinazolin-2-yl]-amine], the melting point lay within 212 to 214 °C.
The term EC50 denotes the concentration at which the effect is half-maximal. With `COc1cc(Nc2ncc3c(n2)C(C2CCCCC2)CCC3)ccc1-n1cnc(C)c1` (stereo not shown) [Example 71, (8-Cyclohexyl-5,6,7,8-tetrahydro-quinazolin-2-yl)-[3-methoxy-4-(4-methyl-imidazol-1-yl)-phenyl]-amine], in the series with γ-secretase, the EC50 is 470 nM.
With `COc1cc(Nc2ncc3c(n2)C(c2ccccc2)CN(C(C)C)C3)ccc1-n1cnc(C)c1` (stereo not shown) [Example 80, (6-Isopropyl-8-phenyl-5,6,7,8-tetrahydro-pyrido[4,3-#d!]pyrimidin-2-yl)-[3-methoxy-4-(4-methyl-imidazol-1-yl)-phenyl]-amine], the EC50 with γ-secretase turned out to be 450 nM.
Compound `COc1cc(Nc2ncc3c(n2)C(N2CCOCC2)CCC3)ccc1-n1cnc(C)c1` (stereo not shown) [Example 81, [3-Methoxy-4-(4-methyl-imidazol-1-yl)-phenyl]-(8-morpholin-4-yl-5,6,7,8-tetrahydro-quinazolin-2-yl)-amine] showed a melting point of 214 to 216 °C.
For the compound `CCOC1CCCc2cnc(Nc3ccc(-n4cnc(C)c4)c(OC)c3)nc21` (stereo not shown) [Example 83, (8-Ethoxy-5,6,7,8-tetrahydro-quinazolin-2-yl)-[3-methoxy-4-(4-methyl-imidazol-1-yl)-phenyl]-amine], the EC50 with γ-secretase was 450 nM.
The compound `COc1cc(Nc2ncc3c(n2)C(c2ccccn2)CCC3)ccc1-n1cnc(C)c1` (stereo not shown) [Example 84, [3-Methoxy-4-(4-methyl-imidazol-1-yl)-phenyl]-(8-pyridin-2-yl-5,6,7,8-tetrahydro-quinazolin-2-yl)-amine] came in with a melting point of 181 to 183 °C.
Consider `COc1cc(Nc2nc3c(s2)CCCC3c2ccccc2)ccc1-c1cnn(C)c1` (stereo not shown) [Example 91, [3-Methoxy-4-(1-methyl-1H-pyrazol-4-yl)-phenyl]-(4-phenyl-4,5,6,7-tetrahydro-benzothiazol-2-yl)-amine], for which the EC50 with γ-secretase came out at 240 nM.
In the case of `COc1cc(Nc2nc3c(s2)CCCC3c2ccccc2)ccc1-c1cnc(C)s1` (stereo not shown) [Example 92, [3-Methoxy-4-(2-methyl-thiazol-5-yl)-phenyl]-(4-phenyl-4,5,6,7-tetrahydro-benzothiazol-2-yl)-amine], in the series with γ-secretase, the concentration giving a half-maximal response (EC50) was found to be 252 nM.
Regarding `COc1cc(Nc2nc3c(s2)CCCC3c2ccccc2)ccc1-c1sc(C)nc1C` (stereo not shown) [Example 93, [4-(2,4-Dimethyl-thiazol-5-yl)-3-methoxy-phenyl]-(4-phenyl-4,5,6,7-tetrahydro-benzothiazol-2-yl)-amine], in the series on γ-secretase, the 50% effective concentration (EC50) worked out at 212 nM.
Still for that read-out and setting: under `c1ccc(C2CCCc3sc(Nc4ccc(-c5ccncc5)cc4)nc32)cc1` (stereo not shown) [Example 94, (4-Phenyl-4,5,6,7-tetrahydro-benzothiazol-2-yl)-(4-pyridin-4-yl-phenyl)-amine] stands 320 nM.
